Results taken from patent US6632844B1, “Methods and compositions for preserving glucose level in blood specimens” (Washington University, priority 2000, dated 2003).
Like-named read-outs stand apart in the source and are kept apart here.

Columns and labels:
heparinized whole blood = conditions: for ability to preserve specimen glucose (in words): 10 mmol/L, 8 hours; for Decrease (glucose loss) / Glucose at 8 hours / Glucose at 0 Hours: agent at 10 mmol/L; for Decrease (glucose loss): 0 to 8 hours, no additions 41%; for Glucose at 8 hours: 8 hours at room temperature; for Glucose at 8 hours / Glucose at 0 Hours: mean(SD); for IC50: read-out: concentration that reduced glycolytic loss by half, 8 hours incubation at room temperature
Excerpt: Whole blood specimens collected in tubes containing sodium heparin as anticoagulant were obtained from healthy adult volunteers or from adult diabetic patients visiting an outpatient clinic, after obtaining informed consent. Specimens were employed for experimentation within one hour of collection. In a few experiments, whole blood heparinized specimens arriving at the clinical laboratory for analysis for glucose and other common analytes were mixed, and aliquots removed for experimental purposes. These studies were conducted in accordance with a protocol approved by the Human Studies Committee of Washington University.
Aliquots of heparinized whole blood (0.96 mL) were pipetted into microfuge tubes containing 0.040 mL of saline or anti-glycolytic agent in saline. Anti-glycolytic agents were prepared as 250 mmol/L stock solutions within one hour of use. At various times plasma was prepared from incubations by centrifugation at 8000×G for two minutes; plasma was decanted to 12×75 mm tubes and stored frozen until analysis. All incubations of whole blood were conducted at room temperature (23°) on a rotating table shaker, which kept the cells in dispersed suspension. d,1-glyceraldehyde, methylgloxal, d-glyceraldehyde, glycolaldehyde and dihydroxyacetone were obtained from Sigma Chem Co. (St. Louis, Mo.). 1-glyceraldehyde was obtained from Fisher Scientific (Pittsburgh, Pa.).
Glucose analyses were routinely performed on a Cobas-MIRA analyzer (Roche Diagnostic Systems, Montclair, N.J.), employing reagents based on glucose oxidase, manufactured by Sigma Diagnostics (St. Louis, Mo.). In some experiments, glucose and many other common laboratory analyses were performed on a Vitros 250 Analyzer (Ortho-Clinical Diagnostics, Rochester, N.Y.), a Hitachi 747 Analyzer (Boehringer-Mannheim Corp., Indianapolis, Ind.) and a RxL Analyzer (Dade Behring, Inc. Newark, Del.).
Whole heparinized blood was incubated for 0-8 hours in the presence of 10 mmol/L d,1-GA, and the glycolytic loss of glucose followed over time (FIG. 1).
Whole heparinized blood was incubated for 8 hours in the presence of 0-10 mmol/L d,1-GA (FIG. 2).
Several compounds related biochemically or structurally to d,1-GA were tested for ability to preserve specimen glucose; incubations without inhibitor and with d,1-GA were included for comparison (Table I). All compounds were tested at a final concentration of 10 mmol/L, and incubations were conducted at 0 hours and 8 hours for each compound. […] To test this possibility, an experiment varying the concentration of 1-GA was performed in analogy with the earlier experiment varying the d,1-GA concentration (see above).

[1] = system: patient whole blood specimens; assay: Efficacy of d,1-GA in patient specimens: initial glucose vs glucose after 8 hours incubation; type: cell-based, human; conditions: 10 mmol/L d,1-GA
Excerpt: Results are presented by plotting initial glucose concentration against glucose concentrations either in the presence or absence of d,1-GA (FIG. 3).

[2] = system: erythrocyte potassium homeostasis; assay: Effect on erythrocyte potassium homeostasis (plasma potassium in whole blood incubations); type: cell-based, human; conditions: 10 mmol/L d,1-GA; room temperature; 4.0±0 mmol/L at 0 hours
Procedure: 1-glyceraldehyde was obtained from Fisher Scientific (Pittsburgh, Pa.).
The time course of potassium concentration changes was followed for 8 hours in whole blood incubations under three conditions; 1) incubation at room temperature (without additions), 2) incubation at room temperature with 10 mmol/L d,1-GA, and 3) incubation at 4° C. (without additions). In room temperature incubations without additive, potassium decreased modestly from 4.0±0 mmol/L at 0 hours to 3.5±0.1 mmol/L at 8 hours. Incubation for 8 hours in the presence of d,1-GA caused an increase of similar magnitude (to 4.5±0 mmol/L). In contrast, incubation at 4° C., which has been advocated as an effective way to prevent glucose loss for short periods (Lin et al., Clin. Chem., 22:2031-3 (1976)), caused an increase to 6.0±0.1 mmol/L.

IC50 (heparinized whole blood) | plasma potassium at 8 hours [2] | Compound | hemolysis (heparinized whole blood) | elimination of glycolytic loss (in words) (heparinized whole blood; 2.5 mmol/L 1-GA, 8 hour incubation, data not shown) | ability to preserve specimen glucose (in words) (heparinized whole blood) | Decrease (glucose loss) (heparinized whole blood) | Glucose at 8 hours (heparinized whole blood) | Glucose at 0 Hours (heparinized whole blood) | residual glucose at 8 hours (heparinized whole blood; 5 mmol/L d,1-GA, start 4.8±0.1 mmol/L, FIG. 2) | loss of glucose at 8 hours (heparinized whole blood; 10 mmol/L d,1-GA, FIG. 1, without additive 38% lost) | hemolysis (heparinized whole blood; whole blood incubation with additive) | reduction of the extent of glucose loss compared with absence of d,1-GA [1]
~650 µM |  | O=C[C@@H](O)CO [1-GA, 1-glyceraldehyde] | does not cause hemolysis | nearly completely effective | completely prevented | 0% | 4.8(0.1) mmol/L | 4.8(0.1) mmol/L |  |  |  | 
 |  | O=C(O)C(O)CO (stereo not shown) [Glyceric Acid, reference compound] |  |  |  | 42% | 2.7(0.2) mmol/L | 4.7(0.1) mmol/L |  |  |  | 
 |  | O=CCO [Glycolaldehyde, reference compound] |  |  |  | 52% | 2.3(0.1) mmol/L | 4.8(0.1) mmol/L |  |  |  | 
 |  | O=C(CO)[C@@H](O)[C@H](O)[C@@H](O)CO [L-Sorbose, reference compound] |  |  | not effective | 38% | 3.1(0) mmol/L | 5.0(0.1) mmol/L |  |  |  | 
 |  | CC(=O)C=O [Methylglyoxal, reference compound] |  |  | ineffective | 43% | 2.6(0.2) mmol/L | 4.5(1.0) mmol/L |  |  |  | 
~900 µM | 4.5 ± 0 mmol/L | O=CC(O)CO (stereo not shown) [d,1-GA, d,1-glyceraldehyde] |  |  |  | 0% | 4.8(0.1) mmol/L | 4.7(0.2) mmol/L | 4.6 ± 0.3 mmol/L | 2% | did not promote visible hemolysis | more than 7 fold
 |  | O=C[C@H](O)CO [d-GA, d-glyceraldehyde] |  |  | only partly effective | 17% | 3.9(0.1) mmol/L | 4.7(0.1) mmol/L |  |  |  | 
